Target: T1, wheat germ agglutinin (WGA)
T1 construct: horseradish peroxidase-labelled WGA (WGA-HRP); homodimer
Assay: competitive enzyme-linked lectin assay (ELLA), WGA-HRP vs PAA-GlcNAc
Type: binding, Triticum aestivum

CC(=O)N[C@H]1C(O)O[C@H](CO)[C@@H](O)[C@@H]1O (stereo partly shown) [GlcNAc]
IC50: 35 mM

— PMC6541351, “Towards the preparation of synthetic outer membrane vesicle models with micromolar affinity to wheat germ agglutinin using a dialkyl thioglycoside” (Beilstein Journal of Organic Chemistry, 2019)
